The values below come from US20240165243A1, “EGFR DEGRADERS AND METHODS OF USE” (BeiGene Switzerland GmbH, priority 2021, published 2024).

Molecules are shown by their SMILES.

As usually defined, the DC50 is the midpoint of the concentration-degradation curve.

The assay has as its system EGFR (Del19/T790M/C797S). Description: Cell degradation HTRF assay, H1975-clone #28 cells. The class given is cell-based. The following applies: H1975-clone #28 (Del19/T790M/C797S) cells, 16 h treatment; for DC50: HTRF, read-out: H1975-clone#28 DTC DC50; for H1975-clone#28 DTC Dmax (%): maximum percentage of degradation. The protocol:
Cell Degradation of Example 124-189
H1975-#28 and H1975-#25 cells are treated with compounds diluted in 0.2% DMSO cell culture medium on day 2, incubate for 16 h, 37° C., 5% CO2. the final concentration of compounds in all assay is start with 10 uM, 5-fold dilution, total 8 doses were included.
After 16 h treatment, add HTRF lysis buffer to each well; seal the plate and incubate 1 hour at room temperature on a plate shaker; Once the cells are lysed, 16 μL of cell lysate are transferred to a PE 384-well HTRF detection plate; 4 μL of pre-mixed HTRF antibodies are added to each well; Cover the plate with a plate sealer, spin 1000 rpm for 1 min, Incubate overnight at room temperature; Read on BMG PheraStar with HTRF protocol (337 nm-665 nm-620 nm).
The inhibition (degradation) percentage of the compound was calculated by the following equation:
Inhibition percentage of Compound=100−100×(Signal−low control)/(High control−low control), wherein signal=each test compound group.
High control=Cell group with added DMSO and without compound, indicating microplate readings without EGFR degradation;
Dmax is the maximum percentage of inhibition (degradation).
The IC50 (DC50) value of a compound can be obtained by fitting the following equation
Y=Bottom+(TOP−Bottom)/(1+((IC50/X)^hillslope))
Wherein, X and Y are known values, and IC50, Hillslope, Top and Bottom are the parameters obtained by fitting with software. Y is the inhibition percentage (calculated from the equation), X is the concentration of the compound; IC50 is the concentration of the compound when the 50% inhibition is reached. The smaller the IC50 value is, the stronger the inhibitory ability of the compound is. Vice versa, the higher the IC50 value is, the weaker the ability the inhibitory ability of the compound is; Hillslope represents the slope of the fitted curve, generally around 1*; Bottom represents the minimum value of the curve obtained by data fitting, which is generally 0%±20%; Top represents the maximum value of the curve obtained by data fitting, which is generally 100%±20%. The experimental data were fitted by calculating and analyzing with Dotmatics data analysis software. When Dmax<50%, DC50 will be automatically assigned as larger than […].
Background: Time-resolved FRET reads energy transfer from a long-lived donor to a nearby acceptor.

As to `CCc1cc(Nc2ncc(Br)c(Nc3cnc4ccccc4c3P(C)(C)=O)n2)c(OC)cc1N1CCC(N2CCN(CCc3ccc4c(c3)oc(=O)n4C3CCC(=O)NC3=O)CC2)CC1` (stereo not shown) [Example 176, 3-(6-(2-(4-(1-(4-((5-bromo-4-((4-(dimethylphosphoryl)quinolin-3-yl)amino)pyrimidin-2-yl)amino)-2-ethyl-5-methoxyphenyl)piperidin-4-yl)piperazin-1-yl)ethyl)-2-oxobenzo[d]oxazol-3(2H)-yl)piperidine-2,6-dione], the DC50 was 1.6 nM and the “H1975-clone#28 DTC Dmax (%)” value is on record as 73%.

`CCc1cc(Nc2ncc(Br)c(Nc3cnc4c(F)cccc4c3P(C)(C)=O)n2)c(OC)cc1N1CCC(N2CCN(CCc3cc(F)c(C4CCC(=O)NC4=O)c(F)c3)CC2)CC1` (stereo not shown) [Example 181, 3-(4-(2-(4-(1-(4-((5-bromo-4-((4-(dimethylphosphoryl)-8-fluoroquinolin-3-yl)amino)pyrimidin-2-yl)amino)-2-ethyl-5-methoxyphenyl)piperidin-4-yl)piperazin-1-yl)ethyl)-2,6-difluorophenyl)piperidine-2,6-dione]: the DC50 was determined as 4.2 nM and the “H1975-clone#28 DTC Dmax (%)” value is given as 82%.

For `CCc1cc(Nc2ncc(Br)c(Nc3cnc4ccccc4c3P(C)(C)=O)n2)c(OC)cc1N1CCC(N2CCN(CCc3c(F)ccc4c3n(C)c(=O)n4C3CCC(=O)NC3=O)CC2)CC1` (stereo not shown) [Example 159, 3-(4-(2-(4-(1-(4-((5-bromo-4-((4-(dimethylphosphoryl)quinolin-3-yl)amino)pyrimidin-2-yl)amino)-2-ethyl-5-methoxyphenyl)piperidin-4-yl)piperazin-1-yl)ethyl)-5-fluoro-3-methyl-2-oxo-2,3-dihydro-1H-benzo[d]imidazol-1-yl)piperidine-2,6-dione], the DC50 worked out at 1.4 nM and the “H1975-clone#28 DTC Dmax (%)” value is reported as 85%.

Consider `CCOc1cc(N2CCC(N3CCN(CCc4ccc5c(c4)oc(=O)n5C4CCC(=O)NC4=O)CC3)CC2)c(CC)cc1Nc1ncc(Br)c(Nc2cnc3cc(F)ccc3c2P(C)(C)=O)n1` (stereo not shown) [Example 133, 3-(6-(2-(4-(1-(4-((5-bromo-4-((4-(dimethylphosphoryl)-7-fluoroquinolin-3-yl)amino)pyrimidin-2-yl)amino)-5-ethoxy-2-ethylphenyl)piperidin-4-yl)piperazin-1-yl)ethyl)-2-oxobenzo[d]oxazol-3(2H)-yl)piperidine-2,6-dione], for which the DC50 was 3 nM and the “H1975-clone#28 DTC Dmax (%)” value came out at 71%.

With `CCc1cc(Nc2ncc(Br)c(Nc3cnc4c(F)cccc4c3P(C)(C)=O)n2)c(OC)cc1N1CCC(N2CCN(C(=O)C3CCN(c4ccc5c(c4)C(C)(C)C(=O)N5C4CCC(=O)NC4=O)CC3)CC2)CC1` (stereo not shown) [Example 182, 3-(5-(4-(4-(1-(4-((5-bromo-4-((4-(dimethylphosphoryl)-8-fluoroquinolin-3-yl)amino)pyrimidin-2-yl)amino)-2-ethyl-5-methoxyphenyl)piperidin-4-yl)piperazine-1-carbonyl)piperidin-1-yl)-3,3-dimethyl-2-oxoindolin-1-yl)piperidine-2,6-dione], the DC50 turned out to be 0.8 nM and the “H1975-clone#28 DTC Dmax (%)” value amounted to 56%.

For `CCc1cc(Nc2ncc(Br)c(Nc3cnc4ccccc4c3P(C)(C)=O)n2)c(OC)cc1N1CCC(N2CCN(CCc3ccc4c(oc(=O)n4C4CCC(=O)NC4=O)c3F)CC2)CC1` (stereo not shown) [Example 142, 3-(6-(2-(4-(1-(4-((5-bromo-4-((4-(dimethylphosphoryl)quinolin-3-yl)amino)pyrimidin-2-yl)amino)-2-ethyl-5-methoxyphenyl)piperidin-4-yl)piperazin-1-yl)ethyl)-7-fluoro-2-oxobenzo[d]oxazol-3(2H)-yl)piperidine-2,6-dione], the DC50 came out at 0.9 nM and the “H1975-clone#28 DTC Dmax (%)” value turned out to be 81%.

On to `CCc1cc(Nc2ncc(Br)c(Nc3cnc4cc(F)ccc4c3P(C)(C)=O)n2)c(OC)cc1N1CCC(N2CCN(CCc3cc(F)c(C4CCC(=O)NC4=O)c(F)c3)CC2)CC1` (stereo not shown) [Example 172, 3-(4-(2-(4-(1-(4-((5-bromo-4-((4-(dimethylphosphoryl)-7-fluoroquinolin-3-yl)amino)pyrimidin-2-yl)amino)-2-ethyl-5-methoxyphenyl)piperidin-4-yl)piperazin-1-yl)ethyl)-2,6-difluorophenyl)piperidine-2,6-dione], for which the DC50 worked out at 1.4 nM and the “H1975-clone#28 DTC Dmax (%)” value is reported as 81%.

Regarding `CCc1cc(Nc2ncc(Br)c(Nc3cnc4ccccc4c3P(C)(C)=O)n2)c(OCC(F)(F)F)cc1N1CCC(N2CCN(CCC3CCN(c4cc(F)c(C5CCC(=O)NC5=O)c(F)c4)CC3)CC2)CC1` (stereo not shown) [Example 186, 3-(4-(4-(2-(4-(1-(4-((5-bromo-4-((4-(dimethylphosphoryl)quinolin-3-yl)amino)pyrimidin-2-yl)amino)-2-ethyl-5-(2,2,2-trifluoroethoxy)phenyl)piperidin-4-yl)piperazin-1-yl)ethyl)piperidin-1-yl)-2,6-difluorophenyl)piperidine-2,6-dione], the DC50 stood at 8 nM and the “H1975-clone#28 DTC Dmax (%)” value is 72%.

On to `CCc1cc(Nc2ncc(Br)c(Nc3cnc4ccccc4c3P(C)(C)=O)n2)c(OC)cc1N1CCC(N2CCN(CCc3cccc4c3n(CC)c(=O)n4C3CCC(=O)NC3=O)CC2)CC1` (stereo not shown) [Example 135, 3-(4-(2-(4-(1-(4-((5-bromo-4-((4-(dimethylphosphoryl)quinolin-3-yl)amino)pyrimidin-2-yl)amino)-2-ethyl-5-methoxyphenyl)piperidin-4-yl)piperazin-1-yl)ethyl)-3-ethyl-2-oxo-2,3-dihydro-1H-benzo[d]imidazol-1-yl)piperidine-2,6-dione], for which the DC50 was 0.9 nM and the “H1975-clone#28 DTC Dmax (%)” value is recorded as 83%.

Take `CCc1cc(Nc2ncc(Br)c(Nc3cnc4ccccc4c3P(C)(C)=O)n2)c(OC)cc1N1CCC(N2CCN(CCc3cc(F)c(C4CCC(=O)NC4=O)c(F)c3F)CC2)CC1` (stereo not shown) [Example 180, 3-(4-(2-(4-(1-(4-((5-bromo-4-((4-(dimethylphosphoryl)quinolin-3-yl)amino)pyrimidin-2-yl)amino)-2-ethyl-5-methoxyphenyl)piperidin-4-yl)piperazin-1-yl)ethyl)-2,3,6-trifluorophenyl)piperidine-2,6-dione]: the DC50 is 2 nM and the “H1975-clone#28 DTC Dmax (%)” value came out at 83%.

As for `CCc1cc(Nc2ncc(Br)c(Nc3cnc4ccccc4c3P(C)(C)=O)n2)c(OC)cc1N1CCC(N2CCN(CCc3cccc4c3n(C3CC3)c(=O)n4C3CCC(=O)NC3=O)CC2)CC1` (stereo not shown) [Example 155, 3-(4-(2-(4-(1-(4-((5-bromo-4-((4-(dimethylphosphoryl)quinolin-3-yl)amino)pyrimidin-2-yl)amino)-2-ethyl-5-methoxyphenyl)piperidin-4-yl)piperazin-1-yl)ethyl)-3-cyclopropyl-2-oxo-2,3-dihydro-1H-benzo[d]imidazol-1-yl)piperidine-2,6-dione], the DC50 amounted to 0.7 nM and the “H1975-clone#28 DTC Dmax (%)” value came out at 85%.

For the compound `CCc1cc(Nc2ncc(Br)c(Nc3cnc4ccc(F)cc4c3P(C)(C)=O)n2)c(OC)cc1N1CCC(N2CCN(CCc3cccc4c3n(C)c(=O)n4C3CCC(=O)NC3=O)CC2)CC1` (stereo not shown) [Example 170, 3-(4-(2-(4-(1-(4-((5-bromo-4-((4-(dimethylphosphoryl)-6-fluoroquinolin-3-yl)amino)pyrimidin-2-yl)amino)-2-ethyl-5-methoxyphenyl)piperidin-4-yl)piperazin-1-yl)ethyl)-3-methyl-2-oxo-2,3-dihydro-1H-benzo[d]imidazol-1-yl)piperidine-2,6-dione], the DC50 was 2.1 nM and the “H1975-clone#28 DTC Dmax (%)” value was determined as 82%.

For the compound `CCc1cc(Nc2ncc(Br)c(Nc3cnc4ccccc4c3P(C)(C)=O)n2)c(OC)cc1N1CCC(N2CCN(C(=O)C3CN(c4cccc5c4C(C)(C)C(=O)N5C4CCC(=O)NC4=O)C3)CC2)CC1` (stereo not shown) [Example 169, 3-(4-(3-(4-(1-(4-((5-bromo-4-((4-(dimethylphosphoryl)quinolin-3-yl)amino)pyrimidin-2-yl)amino)-2-ethyl-5-methoxyphenyl)piperidin-4-yl)piperazine-1-carbonyl)azetidin-1-yl)-3,3-dimethyl-2-oxoindolin-1-yl)piperidine-2,6-dione], the DC50 worked out at 4.6 nM and the “H1975-clone#28 DTC Dmax (%)” value was determined as 65%.

As for `CCc1cc(Nc2ncc(Br)c(Nc3cnc4ccccc4c3P(C)(C)=O)n2)c(OC)cc1N1CCC(N2CCN(CCc3ccc(F)c4c3n(C)c(=O)n4C3CCC(=O)NC3=O)CC2)CC1` (stereo not shown) [Example 130, 3-(4-(2-(4-(1-(4-((5-bromo-4-((4-(dimethylphosphoryl)quinolin-3-yl)amino)pyrimidin-2-yl)amino)-2-ethyl-5-methoxyphenyl)piperidin-4-yl)piperazin-1-yl)ethyl)-7-fluoro-3-methyl-2-oxo-2,3-dihydro-1H-benzo[d]imidazol-1-yl)piperidine-2,6-dione], the DC50 came out at 1 nM and the “H1975-clone#28 DTC Dmax (%)” value is on record as 86%.
